Results on 61 compounds are retold here after ChEMBL document CHEMBL1137753, “Insecticidal heterolignans--tubuline polymerization inhibitors with activity against chewing pests” (Bioorg Med Chem, 2009).

Active and inactive are the calls of the source.

One experiment has as its system Phaedon cochleariae. Nature of the experiment: Insecticidal activity against Phaedon cochleariae larvae in disk of Chinese cabbage leaf treated as spray. The class given is functional, organism-based.
A further experiment relates to Spodoptera frugiperda. Nature of the experiment: Insecticidal activity against Spodoptera frugiperda larvae in disk of maize leaf treated as spray. The class given is functional, organism-based.

As for `COc1cc(OC)cc(C2C3=C(Nc4cc5c(cc42)OCO5)C(C)(C)NC3=O)c1` (centres undefined), the result with Phaedon cochleariae and in the experiment on Spodoptera frugiperda was inactive.

Turning to `O=C1OCC2=C1C(c1cccc(OC(F)F)c1)c1cc3c(cc1O2)OCO3` (centres undefined), the outcome in the experiment with Phaedon cochleariae and in the experiment with Spodoptera frugiperda was inactive.

With `CC1(C)CC(=O)C2=C(C1)Nc1cc3c(cc1C2c1cccc(Cl)c1)OCO3` (centres undefined), the result in the experiment on Phaedon cochleariae and in the experiment on Spodoptera frugiperda was inactive.

As to `CC1(c2cccc(Cl)c2)C2=C(COC2=O)Nc2ccc(Cl)cc21` (centres undefined), the result with Phaedon cochleariae and in the experiment with Spodoptera frugiperda was inactive.

With `COc1cc(OC)cc(C2C3=C(Nc4cc5c(cc42)OCO5)C(C)(CC(C)C)NC3=O)c1` (centres undefined), the outcome in the experiment with Phaedon cochleariae and with Spodoptera frugiperda was inactive.

On to `COc1cc2c(cc1OC)C(c1cc(OC)c(OC)c(OC)c1)C1=C(O)OCC1=N2` (centres undefined), for which the outcome in the experiment on Phaedon cochleariae and with Spodoptera frugiperda was inactive.

Consider `COc1cc(OC)cc(C2C3=C(COC3=O)Oc3c2ccc(OC)c3OC)c1` (centres undefined), for which the result in the experiment with Phaedon cochleariae and in the experiment with Spodoptera frugiperda was inactive.

Take `COc1cc(OC)cc(C2(C)C3=C(COC3=O)Nc3cc4c(cc32)OCO4)c1` (centres undefined): the outcome in the experiment with Phaedon cochleariae and in the experiment with Spodoptera frugiperda was inactive.

Consider `COc1ccc(C2C3=C(O)OCC3=Nc3cc4c(cc32)OCO4)cc1` (centres undefined), for which the result in the experiment on Phaedon cochleariae and in the experiment on Spodoptera frugiperda was inactive.

Consider `COc1cc(OC)cc(C2C3=C(COC3=O)Nc3cc(OCc4ccccc4)ccc32)c1` (centres undefined), for which the outcome with Phaedon cochleariae and with Spodoptera frugiperda was inactive.

For `O=C1OCC2=C1C(c1cc(Cl)ccc1Cl)c1cc3c(cc1N2)OCO3` (centres undefined), the result in the experiment on Phaedon cochleariae and in the experiment with Spodoptera frugiperda was inactive.

In the case of `Clc1cccc(C2C3=C(CCCC3)Nc3cc4c(cc32)OCO4)c1` (centres undefined), the outcome in the experiment with Phaedon cochleariae and in the experiment with Spodoptera frugiperda was inactive.

In the case of `COc1cc(OC)cc(C2C3=C(COC3=O)Nc3cc(OCc4ccccc4)c(Br)cc32)c1` (centres undefined), the outcome in the experiment with Phaedon cochleariae and in the experiment on Spodoptera frugiperda was inactive.

On to `COc1cc(OC)cc(C2C3=C(Nc4cc5c(cc42)OCO5)C(C)(C)COS3(=O)=O)c1` (centres undefined), for which the result in the experiment on Phaedon cochleariae and in the experiment with Spodoptera frugiperda was inactive.

In the case of `O=C1OCC2=C1C(c1ccc3c(c1)OC(F)(F)O3)c1cc3c(cc1N2)OCO3` (centres undefined), the result in the experiment with Phaedon cochleariae and with Spodoptera frugiperda was inactive.

With `O=C1OCC2=C1C(c1cccc(Cl)c1)c1cc3c(cc1O2)OCO3` (centres undefined), the result in the experiment on Phaedon cochleariae and with Spodoptera frugiperda was inactive.

Regarding `O=C1OCC2=C1C(c1cccc(OCCO)c1)c1cc3c(cc1N2)OCO3` (centres undefined), the outcome with Phaedon cochleariae was inactive.

Consider `COc1cc(OC)cc(C2C3=C(COC3=O)Nc3cc(OC)c(OC)c(OC)c32)c1` (centres undefined), for which the result in the experiment with Phaedon cochleariae and in the experiment with Spodoptera frugiperda was inactive.

Turning to `COc1cc(OC)cc(C2C3=C(COC3=O)Nc3cc(C)c(C)cc32)c1` (centres undefined), the outcome in the experiment on Phaedon cochleariae and in the experiment on Spodoptera frugiperda was inactive.

With `CC(C)(C)OC(=O)N1CC2=C(C1=O)C(c1cccc(Cl)c1)c1cc3c(cc1N2)OCO3` (centres undefined), in the experiment with Spodoptera frugiperda, the result was inactive.

With `O=C1CCCC2=C1C(c1cccc(Cl)c1)c1cc3c(cc1N2)OCO3` (centres undefined), the outcome with Phaedon cochleariae and in the experiment on Spodoptera frugiperda was inactive.

`O=S1(=O)CCCC2=C1C(c1cccc(Cl)c1)c1cc3c(cc1N2)OCO3` (centres undefined): the result with Phaedon cochleariae and with Spodoptera frugiperda was inactive.

Turning to `COc1cccc(C2C3=C(COC3=O)Nc3cc4c(cc32)OCO4)c1OC` (centres undefined), the result in the experiment with Phaedon cochleariae and in the experiment on Spodoptera frugiperda was inactive.

Consider `O=C1C2=C(C(=O)C1c1ccccc1)C(c1cccc(Cl)c1)c1cc3c(cc1N2)OCO3` (centres undefined), for which the outcome in the experiment with Phaedon cochleariae and with Spodoptera frugiperda was inactive.

As for `O=C1OCC2=C1C(c1ccc(Cl)cc1)c1cc3c(cc1N2)OCO3` (centres undefined), the result with Phaedon cochleariae and in the experiment with Spodoptera frugiperda was inactive.

With `CC1(C)CS(=O)(=O)C2=C1Nc1cc3c(cc1C2c1cccc(Cl)c1)OCO3` (centres undefined), the outcome in the experiment with Phaedon cochleariae and with Spodoptera frugiperda was inactive.

As to `O=C1OCC2=C1C(c1cc(Cl)cc(Cl)c1)c1cc3c(cc1O2)OCO3` (centres undefined), the outcome in the experiment with Phaedon cochleariae and in the experiment on Spodoptera frugiperda was inactive.

For the compound `COc1cc2c(cc1OC)N(C)C1=C(C(=O)OC1)C2c1cc(OC)c(OC)c(OC)c1` (centres undefined), the result in the experiment on Phaedon cochleariae and in the experiment with Spodoptera frugiperda was inactive.

With `COc1cc(OC)cc(C2C3=C(COC3=O)Nc3ccc(OC(C)C)cc32)c1` (centres undefined), the outcome with Phaedon cochleariae and with Spodoptera frugiperda was inactive.

Consider `O=C1OCC2=C1C(c1cccc(Br)c1)c1cc3c(cc1O2)OCO3` (centres undefined), for which the outcome in the experiment with Phaedon cochleariae and in the experiment with Spodoptera frugiperda was inactive.

In the case of `O=S1(=O)CCC2=C1C(c1cccc(Cl)c1)c1cc3c(cc1N2)OCO3` (centres undefined), the result in the experiment on Phaedon cochleariae and in the experiment with Spodoptera frugiperda was inactive.

As to `O=C1OCC2=C1C(c1cccc(Cl)c1)c1cc(Cl)ccc1N2` (centres undefined), the outcome in the experiment with Phaedon cochleariae and in the experiment on Spodoptera frugiperda was inactive.

Regarding `O=C1OCC2=C1C(c1cccc(Cl)c1Cl)c1cc3c(cc1N2)OCO3` (centres undefined), the result with Phaedon cochleariae and in the experiment with Spodoptera frugiperda was inactive.

On to `COc1cc(OC)cc(C2C3=C(COC3=O)Nc3c(OC)ccc(OC)c32)c1` (centres undefined), for which the outcome in the experiment on Phaedon cochleariae and with Spodoptera frugiperda was inactive.

Regarding `CCOc1cc2c(cc1OCC)C(c1cc(OC)cc(OC)c1)C1=C(COC1=O)N2` (centres undefined), the outcome in the experiment with Phaedon cochleariae and in the experiment with Spodoptera frugiperda was inactive.

As to `COc1cc(OC)cc(C2C3=C(COC3=O)Nc3cc(-c4ccccc4)ccc32)c1` (centres undefined), the outcome in the experiment with Phaedon cochleariae and in the experiment with Spodoptera frugiperda was inactive.

For the compound `COc1cc(OC)cc(C2C3=C(COC3=O)Nc3cc(OC)c(Cl)cc32)c1` (centres undefined), the outcome with Phaedon cochleariae and with Spodoptera frugiperda was inactive.

Consider `COc1cc(OC)cc(C2C3=C(Nc4cc5c(cc42)OCO5)C(C)(C)COC3=O)c1` (centres undefined), for which the result with Phaedon cochleariae and in the experiment on Spodoptera frugiperda was inactive.

As to `COc1cc(OC)cc(C2C3=C(CCCC3=O)Nc3cc4c(cc32)OCO4)c1` (centres undefined), the result in the experiment on Phaedon cochleariae and with Spodoptera frugiperda was inactive.

With `COc1cc(OC)cc(C2C3=C(COC3=O)Nc3cc(Oc4ccccc4)ccc32)c1` (centres undefined), the outcome in the experiment on Phaedon cochleariae and in the experiment with Spodoptera frugiperda was inactive.

For the compound `O=C1OCC2=C1C(c1cccc(OC(F)(F)F)c1)c1cc3c(cc1O2)OCO3` (centres undefined), the result with Phaedon cochleariae and with Spodoptera frugiperda was inactive.

Regarding `O=C1OCC2=C1C(c1cc(Cl)cc(Cl)c1Cl)c1cc3c(cc1N2)OCO3` (centres undefined), the result with Phaedon cochleariae and in the experiment on Spodoptera frugiperda was inactive.

In the case of `COc1cc(C2C3=C(COC3=O)Nc3cc(Cl)ccc32)cc(OC)c1OC` (centres undefined), the outcome in the experiment on Phaedon cochleariae and in the experiment with Spodoptera frugiperda was inactive.

For `COc1ccc2c(c1)OC1=C(C(=O)OC1)C2c1cccc(Cl)c1` (centres undefined), the result in the experiment on Phaedon cochleariae and with Spodoptera frugiperda was inactive.

In the case of `COc1cc(OC)cc(C2C3=C(CN(C(=O)OC(C)(C)C)C3=O)Nc3cc4c(cc32)OCO4)c1` (centres undefined), the result in the experiment on Phaedon cochleariae and in the experiment with Spodoptera frugiperda was inactive.

`COc1cc(OC)cc(C2C3=C(COC3=O)Nc3cc(C)cc(C)c32)c1` (centres undefined): the outcome in the experiment on Phaedon cochleariae and in the experiment on Spodoptera frugiperda was inactive.

`CCN1C2=C(C(=O)OC2)C(c2cc(OC)cc(OC)c2)c2cc(OC)c(OC)cc21` (centres undefined): the outcome in the experiment on Phaedon cochleariae and in the experiment with Spodoptera frugiperda was inactive.

For `COc1cc(OC)cc(C2C3=C(COC3=O)Nc3cc(C(C)(C)C)ccc32)c1` (centres undefined), the outcome in the experiment with Phaedon cochleariae and in the experiment with Spodoptera frugiperda was inactive.

In the case of `COc1cc(C2C3=C(CN(C(=O)OC(C)(C)C)C3=O)Nc3cc4c(cc32)OCO4)cc(OC)c1OC` (centres undefined), the outcome in the experiment on Phaedon cochleariae and with Spodoptera frugiperda was inactive.

On to `O=C1OC2(CCCCC2)C2=C1C(c1cccc(Cl)c1)c1cc3c(cc1N2)OCO3` (centres undefined), for which the result in the experiment with Phaedon cochleariae and in the experiment on Spodoptera frugiperda was inactive.

Regarding `COc1cc(OC)cc(C2C3=C(COC3=O)Nc3c(C)cc(C)cc32)c1` (centres undefined), the outcome in the experiment on Phaedon cochleariae and with Spodoptera frugiperda was inactive.

As to `COc1cc(C2(C)C3=C(COC3=O)Nc3cc(Cl)ccc32)cc(OC)c1OC` (centres undefined), the outcome with Phaedon cochleariae and in the experiment on Spodoptera frugiperda was inactive.

In the case of `COc1cc(OC)cc(C2C3=C(COC3=O)Nc3cc(OC(F)F)c(OC(F)F)cc32)c1` (centres undefined), the result in the experiment with Phaedon cochleariae and in the experiment with Spodoptera frugiperda was inactive.

In the case of `COc1cc(OC)cc(C2C3=C(COC3=O)Nc3cc(OC(F)(F)F)ccc32)c1` (centres undefined), the outcome in the experiment with Phaedon cochleariae and in the experiment on Spodoptera frugiperda was inactive.

Take `Cc1ccc2c(c1)N(C)C1=C(C(=O)OC1)C2c1ccc(Cl)cc1` (centres undefined): the outcome in the experiment on Phaedon cochleariae and with Spodoptera frugiperda was inactive.

As to `COc1cc(OC)cc(C2C3=C(CN(C(C)C)C3=O)Nc3cc4c(cc32)OCO4)c1` (centres undefined), the result in the experiment on Phaedon cochleariae and in the experiment on Spodoptera frugiperda was inactive.

Take `COc1cc(OC)cc(C2C3=C(COC3=O)Nc3cc(O)ccc32)c1` (centres undefined): the result in the experiment on Phaedon cochleariae and in the experiment on Spodoptera frugiperda was inactive.

Turning to `OC1=C2C(=Nc3cc4c(cc3C2c2ccccc2)OCO4)CO1` (centres undefined), the outcome in the experiment with Phaedon cochleariae was inactive.

Regarding `COc1cc(OC)cc(C2C3=C(Nc4cc5c(cc42)OCO5)C(C)(C)ON(C)C3=O)c1` (centres undefined), the result with Phaedon cochleariae and with Spodoptera frugiperda was inactive.

With `Clc1cccc(C2C3=C(CCC3)Nc3cc4c(cc32)OCO4)c1` (centres undefined), the outcome with Phaedon cochleariae and in the experiment on Spodoptera frugiperda was inactive.

Take `COc1cc(OC)cc(C2C3=C(COC3=O)Oc3cc(OC)ccc32)c1` (centres undefined): the outcome in the experiment with Phaedon cochleariae and with Spodoptera frugiperda was inactive.
